Test results published in ChEMBL document CHEMBL5096164, “In Vivo Profiling of a Natural Alkaloid, Anatabine, in Rodents: Pharmacokinetics and Anti-Inflammatory Efficacy” (J Nat Prod, 2021).
Active and inactive are the calls of the source. The calls are words filed in the database; no cut-off is given here.

Columns and labels:
[1] = Cmax in rat at 0.40 mg/kg via inhalation; type: ADME, organism-based; parameters: dose 0.4 mg/kg, route inh; details: in vivo, inhaled or intranasal, 0.4 mg/kg
[2] = AUC in Wistar rat plasma at 1 mg/kg, iv administered as bolus dose measured after 5 to 360 mins by LC-MS/MS analysis; type: ADME, organism-based; parameters: time upper 360 min, time lower 5 min, dose 1 mg/kg, route iv
[3] = Cmax in rat at 0.06 mg/kg via inhalation; type: ADME, organism-based; parameters: dose 0.06 mg/kg, route inh; details: in vivo, inhaled or intranasal
[4] = Half life in Wistar rat plasma at 5 mg/kg, ip administered as bolus dose measured after 5 to 360 mins by LC-MS/MS analysis; type: ADME, organism-based; details: time 5-360 min
[5] = Half life in rat at 0.40 mg/kg via inhalation; type: ADME, organism-based; details: in vivo, inhaled or intranasal, route inh, dose 0.4 mg/kg
Mus musculus [6] = assay: Antiinflammatory activity ip/LPS induced mouse model assessed as reduction in IL-6 level in plasma preincubated for 1 hr followed by LPS stimulation and measured after 2 hrs by ELISA method; type: functional, organism-based; details: dose 1-5 mg/kg, time 3.0 hrs, DDE = dose-dependent effect
Mus musculus [7] = assay: Antiinflammatory activity in LPS induced mouse model assessed as reduction in tumor necrosis factor alpha level in plasma at 5 mg/kg, ip preincubated for 1 hr followed by LPS stimulation and measured after 2 hrs by ELISA method relative to control; type: functional; parameters: scale not given: the % may be the effect or the level left
[8] = Tmax in Wistar rat plasma at 5 mg/kg, ip administered as bolus dose measured after 5 to 360 mins by LC-MS/MS analysis; type: ADME, organism-based; details: time 5-360 min
[9] = Bioavailability in Wistar rat plasma at 1 mg/kg, iv administered as bolus dose measured after 5 to 360 mins by LC-MS/MS analysis; type: ADME, organism-based; details: in vivo, time 5-360 min
[10] = Half life in rat at 0.06 mg/kg via inhalation; type: ADME, organism-based; details: in vivo, inhaled or intranasal, route inh
Mus musculus [11] = assay: Antiinflammatory activity LPS induced mouse model assessed as reduction in IL-7 at 1 to 5 mg/kg, ip preincubated for 1 hr followed by LPS stimulation and measured after 2 hrs by luminex xMAP bead based assay; type: functional, organism-based; details: dose 1-5 mg/kg, time 3.0 hrs
[12] = Clearance in Wistar rat plasma at 2 mg/kg, iv administered as bolus dose measured after 5 to 360 mins by LC-MS/MS analysis; type: ADME, organism-based; details: time 5-360 min
[13] = Ratio of Cmax in C57BL/6 mouse brain to plasma at 2 mg/kg, ip measured after 3 to 240 mins by LC-MS/MS analysis; type: ADME, organism-based; details: brain and plasma, time 3-240 min, read-out: BPR
[14] = Volume of distribution at steady state in Wistar rat plasma at 1 mg/kg, iv administered as bolus dose measured after 5 to 360 mins by LC-MS/MS analysis; type: ADME, organism-based; details: time 5-360 min, read-out: Vdss
[15] = Clearance in Wistar rat plasma at 1 mg/kg, iv administered as bolus dose measured after 5 to 360 mins by LC-MS/MS analysis; type: ADME, organism-based; details: in vivo, time 5-360 min
Mus musculus [16] = assay: Antiinflammatory activity LPS induced mouse model assessed as reduction in IL-6 level in plasma at 5 mg/kg, ip preincubated for 1 hr followed by LPS stimulation and measured after 2 hrs by ELISA method relative to control; type: functional; parameters: scale not given: the % may be the effect or the level left
[17] = Tmax in Wistar rat plasma at 2 mg/kg, iv administered as bolus dose measured after 5 to 360 mins by LC-MS/MS analysis; type: ADME, organism-based; details: time 5-360 min
[18] = Cmax in C57BL/6 plasma at 2 mg/kg, ip measured after 3 to 240 mins by LC-MS/MS analysis; type: ADME, organism-based; parameters: time 3-240 min, dose 2 mg/kg, route ip; details: C57BL/6, mouse
[19] = AUC in rat at 0.06 mg/kg via inhalation; type: ADME, organism-based; parameters: dose 0.06 mg/kg, route inh; details: in vivo, inhaled or intranasal
[20] = Drug uptake in MOG (35 to 55 residues)-induced experimental autoimmune encephalomyelitis mouse aerosol at 25 microg/L by LC-MS/MS analysis; type: ADME; details: in vivo, inhaled_or_intranasal, dose 25 µg/L
[21] = Half life in Wistar rat plasma at 2 mg/kg, iv administered as bolus dose measured after 5 to 360 mins by LC-MS/MS analysis; type: ADME, organism-based; details: time 5-360 min
[22] = Bioavailability in Wistar rat plasma at 5 mg/kg, ip administered as bolus dose measured after 5 to 360 mins by LC-MS/MS analysis; type: ADME, organism-based; details: time 5-360 min
[23] = Half life in rat at 2.73 mg/kg via inhalation; type: ADME, organism-based; details: in vivo, inhaled or intranasal, route inh
[24] = Bioavailability in rat at 0.40 mg/kg via inhalation; type: ADME, organism-based; details: in vivo, inhaled or intranasal, route inh, dose 0.4 mg/kg
[25] = Half life in C57BL/6 mouse brain at 2 mg/kg, ip measured after 3 to 240 mins by LC-MS/MS analysis; type: ADME, organism-based; details: time 3-240 min
[26] = Half life in Wistar rat plasma at 1 mg/kg, iv administered as bolus dose measured after 5 to 360 mins by LC-MS/MS analysis; type: ADME, organism-based; details: time 5-360 min
[27] = Bioavailability in Wistar rat plasma at 2 mg/kg, iv administered as bolus dose measured after 5 to 360 mins by LC-MS/MS analysis; type: ADME, organism-based; details: time 5-360 min
[28] = Drug concentration in carrageenan-induced paw edema in rat respiratory tract at 230.7 microg/L via inhalation measured for 30 mins; type: ADME; details: inhaled or intranasal, route inh, dose 230.7 µg/L, read-out: Drug uptake
[29] = Antiinflammatory activity in MOG (35 to 55 residues)-induced experimental autoimmune encephalomyelitis mouse aerosol assessed as reduction in clinical score at 25 microg/L measured on 15 day (reference value: 1.9); type: ADME; details: inhaled_or_intranasal, 360 h, dose 25 µg/L
[30] = Drug uptake in rat aerosol at 2.5 microg/L via inhalation measured for 30 mins; type: ADME; details: in vivo, inhaled_or_intranasal, 0.5 h, route inh, dose 2.5 µg/L
[31] = Drug concentration in carrageenan-induced paw edema in rat respiratory tract at 77.9 microg/L via inhalation measured for 30 mins; type: ADME; details: inhaled or intranasal, route inh, dose 77.9 µg/L, read-out: Drug uptake
[32] = AUC in Wistar rat plasma at 2 mg/kg, iv administered as bolus dose measured after 5 to 360 mins by LC-MS/MS analysis; type: ADME, organism-based; parameters: time lower 5 min, dose 2 mg/kg, time upper 360 min, route iv
[33] = AUC in Wistar rat plasma at 5 mg/kg, ip administered as bolus dose measured after 5 to 360 mins by LC-MS/MS analysis; type: ADME, organism-based; parameters: dose 5 mg/kg, time upper 360 min, time lower 5 min, route ip
Mus musculus [34] = assay: Antiinflammatory activity LPS induced mouse model assessed as reduction in macrophage inflammatory protein-1alpha at 1 to 5 mg/kg, ip preincubated for 1 hr followed by LPS stimulation and measured after 2 hrs by luminex xMAP bead based assay; type: functional, organism-based; details: dose 1-5 mg/kg, time 3.0 hrs
[35] = Cmax in rat at 2.73 mg/kg via inhalation; type: ADME, organism-based; parameters: dose 2.73 mg/kg, route inh; details: in vivo, inhaled or intranasal

Structure (SMILES): C1=CCC(c2cccnc2)NC1 (stereo not given)
- Cmax [1]: 160 ng/mL
- AUC [2]: 1990 ng·h/mL
- Cmax [3]: 20 ng/mL
- half-life [4]: 1.39 h
- half-life [5]: 3.84 h
- Activity (Mus musculus [6]): Dde
- Activity (Mus musculus [7]): 34%
- Tmax [8]: 9.6 min
- F [9]: 100%
- half-life [10]: 3.96 h
- Activity (Mus musculus [11]): Active
- clearance [12]: 8.11 mL/min/kg
- Kp [13]: 2.5
- Vd [14]: 1.23 L/kg
- CL [15]: 0.00811 mL/min/kg
- Activity (Mus musculus [16]): 47.2%
- Tmax [17]: 9.6 min
- Cmax [18]: 1370 ng/mL
- AUC [19]: 91.2 ng·h/mL
- Drug uptake [20]: 24.8 ng/mL
- half-life [21]: 1.39 h
- bioavailability [22]: 68.6%
- half-life [23]: 3.64 h
- bioavailability [24]: 80.1%
- half-life [25]: 0.36 h
- half-life [26]: 1.14 h
- bioavailability [27]: 68.6%
- concentration at 0.5 h [28]: 2.42 ng/mL
- Activity [29]: 0.6
- Drug uptake [30]: 2.5 µg/L
- concentration at 0.5 h [31]: 0.87 ng/mL
- AUC [32]: 2730 ng·h/mL
- AUC [33]: 6820 ng·h/mL
- Activity (Mus musculus [34]): Active
- Cmax [35]: 780 ng/mL
